The target in this assay is T1, human GPR119 (Homo sapiens, UniProt Q8TDV5).
T1 sequence (Q8TDV5 1-335): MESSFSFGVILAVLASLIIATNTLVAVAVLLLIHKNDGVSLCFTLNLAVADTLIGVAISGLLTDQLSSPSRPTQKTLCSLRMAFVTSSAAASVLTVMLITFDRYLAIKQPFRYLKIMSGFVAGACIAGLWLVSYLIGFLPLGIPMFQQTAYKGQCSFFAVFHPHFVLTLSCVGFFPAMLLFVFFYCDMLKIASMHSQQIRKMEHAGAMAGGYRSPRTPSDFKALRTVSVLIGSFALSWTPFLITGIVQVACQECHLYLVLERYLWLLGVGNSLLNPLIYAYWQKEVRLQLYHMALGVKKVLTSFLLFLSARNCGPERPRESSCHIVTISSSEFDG
Kind of assay: GPR119 radioligand binding assay ([3H]-Compound A or B, membranes of HEK 293FT cells expressing hGPR119). To be noted: calculated from IC50 with Cheng-Prusoff; each line a separate determination. Also noted: host or cells: HEK293-CRE beta-lactamase. On the procedure: HEK 293FT cells (Invitrogen, Carlsbad, Calif.) were grown in a shake flask in 293Freestyle medium (Invitrogen) supplemented with 50 microg/mL neomycin and 10 mM HEPES (37C, 8% carbon dioxide, shaking). The cells were centrifuged gently (approximately 500×g, 10 minutes) and the pellet resuspended in a mixture of Dulbecco's PBS (minus Mg++/−Ca++) supplemented with 18% fetal bovine serum (Sigma Aldrich) and P1 virus such that the multiplicity of infection (MOI) was 10 and the final cell density was 1.3×10^6/mL (total volume 2.5 liters). The cells were transferred to a 5 liter Wave Bioreactor Wavebag (Wave Technologies, Mass.) and incubated for 4 hours at 27 degrees Celsius (17 rocks/min, 7 degrees platform angle); at the end of the incubation period, an equal volume (2.5 liters) of 293Freestyle medium supplemented with 30 mM sodium butyrate (Sigma Aldrich) was added (final concentration=15 mM), and the cells were grown for 20 hours (37 degrees Celsius, 8% CO2 [0.2 liters/min}, 25 rocks/minute, 7 degrees platform angle). Cells were harvested via centrifugation (3,000×g, 10 minutes), washed once on DPBS (minus Ca++/Mg++), resuspended in 0.25M sucrose, 25 mM HEPES, 0.5 mM EDTA, pH 7.4 and frozen at −80 degrees Celsius.
The frozen cells were thawed on ice and centrifuged at 700×g (1400 rpm) for 10 minutes at 4 degrees Celsius. The cell pellet was resuspended in 20 mL phosphate-buffered saline, and centrifuged at 1400 rpm for 10 minutes. The cell pellet was then resuspended in homogenization buffer (10 mM HEPES (Gibco #15630), pH 7.5, 1 mM EDTA (BioSolutions, #BIO260-15), 1 mM EGTA (Sigma, #E-4378), 0.01 mg/mL benzamidine (Sigma #B 6506), 0.01 mg/mL bacitracin (Sigma #B 0125), 0.005 mg/mL leupeptin (Sigma #L 8511), 0.005 mg/mL aprotinin (Sigma #A 1153)) and incubated on ice for 10 minutes. Cells were then lysed with 15 gentle strokes of a tight-fitting glass Dounce homogenizer. The homogenate was centrifuged at 1000×g (2200 rpm) for 10 minutes at 4 degrees Celsius. The supernatant was transferred into fresh centrifuge tubes on ice. The cell pellet was resuspended in homogenization buffer, and centrifuged again at 1000×g (2200 rpm) for 10 minutes at 4 degrees Celsius after which the supernatant was removed and the pellet resuspended in homogenization buffer. This process was repeated a third time, after which the supernatants were combined, Benzonase (Novagen # 71206) and MgCl2 (Fluka #63020) were added to final concentrations of 1 U/mL and 6 mM, respectively, and incubated on ice for one hour. The solution was then centrifuged at 25,000×g (15000 rpm) for 20 minutes at 4 degrees Celsius, the supernatant was discarded, and the pellet was resuspended in fresh homogenization buffer (minus Benzonase and MgCl2). After repeating the 25,000×g centrifugation step, the final membrane pellet was resuspended in homogenization buffer and frozen at −80 degrees Celsius. The protein concentration was determined using the Pierce BCA protein assay kit (Pierce reagents A #23223 and B #23224).
Test compounds were serially diluted in 100% DMSO (J. T. Baker #922401). 2 microL of each dilution was added to appropriate wells of a 96-well plate (each concentration in triplicate). Unlabeled Compound A (or Compound B), at a final concentration of 10 microM, was used to determine non-specific binding. [^3H]-Compound A (or [^3H]-Compound B) was diluted in binding buffer (50 mM Tris-HCl, pH 7.5, (Sigma #T7443), 10 mM MgCl2 (Fluka 63020), 1 mM EDTA (BioSolutions #BIO260-15), 0.15% bovine serum albumin (Sigma #A7511), 0.01 mg/mL benzamidine (Sigma #B 6506), 0.01 mg/mL bacitracin (Sigma #B 0125), 0.005 mg/mL leupeptin (Sigma #L 8511), 0.005 mg/mL aprotinin (Sigma #A 1153)) to a concentration of 60 nM, and 100 microL added to all wells of 96-well plate (Nalge Nunc # 267245). […]

“And” between values parts separate entries of the source, which are not always exact repeats. Equal values may be shown once.

Turning to `CC(C)(C)OC(=O)N1CCC(Oc2cc(N3CCc4cc(S(C)(=O)=O)ccc43)ncn2)C(F)C1` (racemic) [Example 15, tert-Butyl 3-fluoro-4-({6-[5-(methylsulfonyl)-2,3-dihydro-1H-indol-1-yl]pyrimidin-4-yl}oxy)piperidine-1-carboxylate], the Ki (as a rule, a dissociation constant, usually derived from enzyme kinetics or from competition with a known ligand) was 1.72 nM and 6.77 nM and 1.6 nM. With `Cc1c(O[C@H]2CCN(C(=O)OC(C)(C)C)C[C@H]2F)ncnc1N1CCc2ncccc21` (racemic) [Example 16, tert-Butyl (3R,4S)-4-{[6-(2,3-dihydro-1H-pyrrolo[3,2-b]pyridin-1-yl)-5-methylpyrimidin-4-yl]oxy}-3-fluoropiperidine-1-carboxylate (racemic)], the Ki is 1.48 nM and 2.12 nM. Consider `CC(C)OC(=O)N1C[C@H]2COC[C@@H](C1)[C@H]2Oc1cc(N2CCc3cc(S(C)(=O)=O)ccc32)ncn1` [Example 1, Isopropyl 9-anti-({6-[5-(methylsulfonyl)-2,3-dihydro-1H-indol-1-yl]pyrimidin-4-yl}oxy)-3-oxa-7-azabicyclo[3.3.1]nonane-7-carboxylate], for which the Ki is 219 nM and 35.5 nM. On to `CC(C)OC(=O)N1CCC(Oc2ncnc(N3CCc4cc(S(C)(=O)=O)ccc43)c2C#N)CC1` [Example 6, Isopropyl 4-({5-cyano-6-[5-(methylsulfonyl)-2,3-dihydro-1H-indol-1-yl]pyrimidin-4-yl}oxy)piperidine-1-carboxylate], for which the Ki was 1.87 nM and 5.02 nM. `Cc1c(OC2CCN(C(=O)OC(C)C)CC2)ncnc1N1CCc2cc(S(C)(=O)=O)ccc21` [Example 8, Isopropyl 4-({5-methyl-6-[5-(methylsulfonyl)-2,3-dihydro-1H-indol-1-yl]pyrimidin-4-yl}oxy)piperidine-1-carboxylate]: the Ki is 273 nM and 338 nM. Take `CC(C)OC(=O)N1CCC(Oc2cc(N3CCc4cc(C(=O)N(C)C)ccc43)ncn2)CC1` [Example 9, 4-[6-(5-Dimethylcarbamoyl-2,3-dihydroindol-1-yl)-pyrimidin-4-yloxy]-piperidine-1-carboxylic acid isopropyl ester]: the Ki was 58.8 nM and 45.2 nM. Consider `CC(C)OC(=O)N1CCC(Oc2cc(N3CCc4cc(C#N)ccc43)ncn2)CC1` [Example 10, Isopropyl 4-{[6-(5-cyano-2,3-dihydro-1H-indol-1-yl)pyrimidin-4-yl]oxy}piperidine-1-carboxylate], for which the Ki is 232 nM.

Take `CC(C)OC(=O)N1CCC(Oc2cc(N3CCc4cc(S(=O)(=O)CCO)ccc43)ncn2)CC1` [Example 11, Isopropyl 4-[(6-{5-[(2-hydroxyethyl)sulfonyl]-2,3-dihydro-1H-indol-1-yl}pyrimidin-4-yl)oxy]piperidine-1-carboxylate]: the Ki was 72.8 nM. The value for `CC(C)OC(=O)N1CCC(Oc2cc(N3CCc4ncccc43)ncn2)CC1` [Example 12, Isopropyl 4-{[6-(2,3-dihydro-1H-pyrrolo[3,2-b]pyridin-1-yl)pyrimidin-4-yl]oxy}piperidine-1-carboxylate] was 6100 nM and 1350 nM and 2910 nM; that for `Cc1c(OC2CCN(C(=O)OC(C)C)CC2)ncnc1N1CCc2ncccc21` [Example 13, Isopropyl 4-{[6-(2,3-dihydro-1H-pyrrolo[3,2-b]pyridin-1-yl)-5-methylpyrimidin-4-yl]oxy}-piperidine-1-carboxylate] was 55.3 nM and 16 nM and 91.1 nM and 23.8 nM.

For `Cc1c(O[C@H]2CCN(C(=O)OC3(C)CC3)C[C@H]2F)ncnc1N1CCc2ncccc21` [Example 17, 1-Methylcyclopropyl (3R,4S)-4-{[6-(2,3-dihydro-1H-pyrrolo[3,2-b]pyridin-1-yl)-5-methylpyrimidin-4-yl]oxy}-3-fluoropiperidine-1-carboxylate], the Ki is 2 nM and 5.04 nM and 2.43 nM and 4.23 nM and 1.7 nM and 5.67 nM and 13.8 nM and 11.9 nM and 2.45 nM and 6.9 nM. As for `Cc1c(O[C@H]2[C@@H]3COC[C@H]2CN(C(=O)OC(C)C)C3)ncnc1N1CCc2ncccc21` [Example 22, Isopropyl (9-anti)-9-{[6-(2,3-dihydro-1H-pyrrolo[3,2-b]pyridin-1-yl)-5-methylpyrimidin-4-yl]oxy}-3-oxa-7-azabicyclo[3.3.1]nonane-7-carboxylate], the Ki was 66.6 nM and 79.3 nM and 53 nM and 96.4 nM.

For the molecule `Cc1c(O[C@H]2[C@@H]3COC[C@H]2CN(C(=O)OC2(C)CC2)C3)ncnc1N1CCc2ncccc21` [Example 25, 1-Methylcyclopropyl (9-anti)-9-{[6-(2,3-dihydro-1H-pyrrolo[3,2-b]pyridin-1-yl)-5-methylpyrimidin-4-yl]oxy}-3-oxa-7-azabicyclo[3.3.1]nonane-7-carboxylate], the Ki was 39 nM and 34.7 nM. As to `CCC1(OC(=O)N2C[C@H]3COC[C@@H](C2)[C@H]3Oc2ncnc(N3CCc4ncccc43)c2C)CC1` [Example 26, 1-Ethylcyclopropyl (9-anti)-9-{[6-(2,3-dihydro-1H-pyrrolo-[3,2-b]pyridin-1-yl)-5-methylpyrimidin-4-yl]oxy}-3-oxa-7-azabicyclo[3.3.1]nonane-7-carboxylate], the Ki was 40.5 nM and 22.2 nM. In the case of `Cc1c(O[C@H]2[C@@H]3COC[C@H]2CN(C(=O)OC2(C)CCC2)C3)ncnc1N1CCc2ncccc21` [Example 27, 1-Methylcyclobutyl (9-anti)-9-{[6-(2,3-dihydro-1H-pyrrolo[3,2-b]pyridin-1-yl)-5-methylpyrimidin-4-yl]oxy}-3-oxa-7-azabicyclo[3.3.1]nonane-7-carboxylate], the Ki was 20.8 nM and 13.8 nM. As for `Cc1c(O[C@@H]2[C@@H]3COC[C@H]2CN(C(=O)OC(C)C)C3)ncnc1N1CCc2ncccc21` [Example 29, Isopropyl (9-syn)-9-{[6-(2,3-dihydro-1H-pyrrolo[3,2-b]pyridin-1-yl)-5-methylpyrimidin-4-yl]oxy}-3-oxa-7-azabicyclo[3.3.1]nonane-7-carboxylate], the Ki is 73.8 nM.

The values are drawn from US20100285145A1, “GPR 119 MODULATORS” (PFIZER INC, priority 2009, published 2010).
